Measured values: paper PMC6881293, “Nanomolar-potency ‘co-potentiator’ therapy for cystic fibrosis caused by a defined subset of minimal function CFTR mutants” (Scientific Reports, 2019)
One block for each compound: values may come before it.

Key:
N1303K-CFTR [1] = target: T1, N1303K-CFTR (Homo sapiens, UniProt P13569, N1303K); design: method as in PMID 30046002; conditions: prior studies; cited from earlier work
T1 construct: expressed in transfected cells

M1101K-CFTR = target: T2, M1101K-CFTR (Homo sapiens, UniProt P13569, M1101K); test: Short-circuit current in FRT cells expressing M1101K-CFTR; format: cell-based; conditions: 20 μM forskolin, 5 µM VX-770, 20 µM ASP-11
T2 construct: expressed in transfected cells; host or cells: Fischer rat thyroid (FRT) cells; gift from Drs; Andras Rab and Jeong Hong (Emory University)
T2 sequence (P13569 whole entry M1101K): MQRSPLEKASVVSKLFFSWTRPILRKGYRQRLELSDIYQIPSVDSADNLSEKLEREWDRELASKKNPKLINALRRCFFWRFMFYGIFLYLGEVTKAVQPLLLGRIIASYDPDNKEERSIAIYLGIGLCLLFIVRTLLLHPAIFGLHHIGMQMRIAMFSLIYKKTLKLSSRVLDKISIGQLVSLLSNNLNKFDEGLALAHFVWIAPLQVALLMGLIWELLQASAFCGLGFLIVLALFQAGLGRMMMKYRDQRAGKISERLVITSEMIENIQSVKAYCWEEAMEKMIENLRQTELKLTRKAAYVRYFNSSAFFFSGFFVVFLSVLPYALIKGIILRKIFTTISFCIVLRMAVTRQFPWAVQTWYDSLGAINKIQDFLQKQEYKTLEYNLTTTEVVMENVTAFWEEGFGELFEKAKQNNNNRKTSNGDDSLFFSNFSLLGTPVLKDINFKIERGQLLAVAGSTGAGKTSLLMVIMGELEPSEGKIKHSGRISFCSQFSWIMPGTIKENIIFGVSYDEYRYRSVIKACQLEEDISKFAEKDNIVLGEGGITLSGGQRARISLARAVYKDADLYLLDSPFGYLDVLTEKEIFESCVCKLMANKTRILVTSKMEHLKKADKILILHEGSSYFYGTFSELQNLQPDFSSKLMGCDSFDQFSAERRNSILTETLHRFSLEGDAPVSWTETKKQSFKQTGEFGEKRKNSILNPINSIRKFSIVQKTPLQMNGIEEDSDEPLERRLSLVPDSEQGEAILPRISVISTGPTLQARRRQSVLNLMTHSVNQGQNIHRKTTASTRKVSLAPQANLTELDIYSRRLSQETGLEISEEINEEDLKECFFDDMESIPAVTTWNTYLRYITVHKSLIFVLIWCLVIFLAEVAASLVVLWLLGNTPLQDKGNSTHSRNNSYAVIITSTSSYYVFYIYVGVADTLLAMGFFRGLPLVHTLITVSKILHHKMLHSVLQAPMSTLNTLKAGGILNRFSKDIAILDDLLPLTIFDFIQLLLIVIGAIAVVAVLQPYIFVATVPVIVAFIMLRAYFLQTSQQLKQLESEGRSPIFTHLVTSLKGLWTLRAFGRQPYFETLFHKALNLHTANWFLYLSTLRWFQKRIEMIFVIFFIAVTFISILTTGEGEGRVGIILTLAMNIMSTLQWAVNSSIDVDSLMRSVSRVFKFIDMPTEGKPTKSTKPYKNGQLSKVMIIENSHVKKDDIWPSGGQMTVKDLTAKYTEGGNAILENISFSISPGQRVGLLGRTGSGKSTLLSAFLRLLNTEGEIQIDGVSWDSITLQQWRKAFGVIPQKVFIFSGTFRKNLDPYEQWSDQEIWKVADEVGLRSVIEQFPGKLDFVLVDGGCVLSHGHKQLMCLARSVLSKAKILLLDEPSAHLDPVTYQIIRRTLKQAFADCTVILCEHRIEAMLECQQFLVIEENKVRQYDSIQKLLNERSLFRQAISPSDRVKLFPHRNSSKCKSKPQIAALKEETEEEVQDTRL
Description: (§1) As shown in Fig. 1C and summarized in Fig. 2, ASP-11 acted in synergy with VX-770 to increase chloride current in FRT cells expressing the NBD2 mutations I1234del- and Q1313X-CFTR by ~3–9-fold compared to VX-770. I1234del- and Q1313X-CFTR-expressing cells were also treated with VX-809 for 24 hours (to consider the effect of available CFTR therapeutics) with 2–3-fold greater currents observed.
(§2) Figure 2 Summary of short-circuit current responses to modulators for CFTR mutants in transfected FRT cells. Responses to indicated CFTR mutants with 20 μM forskolin, 5 µM VX-770, 20 µM ASP-11 (with or without 3 µM VX-809 overnight). For reference, data shown for cells expressing wild type CFTR. Mean ± S.E.M., n = 3.
(§3) Short-circuit current was measured on cells cultured on Snapwell clear permeable supports (Corning) as described[10],[11]. Hemichambers were connected to a DVC-1000 voltage clamp (World Precision Instruments Inc., Sarasota, FL) via Ag/AgCl electrodes and 3 M KCl agar bridges for recording of the short-circuit current. For human airway epithelial cells, symmetrical HCO3^−-buffered solutions (in mM: 120 NaCl, 5 KCl, 1 MgCl2, 1 CaCl2, 5 Hepes, 25 NaHCO3, 10 glucose, pH 7.4) for basolateral and apical side were used. […]

G551D-CFTR = tested on: G551D-CFTR; design: method as in PMID 29903467; conditions: previously showed; cited from earlier work
V520F-CFTR = target: T3, V520F-CFTR (Homo sapiens, UniProt P13569, V520F); test: Short-circuit current in FRT cells expressing V520F-CFTR; format: cell-based; conditions: 20 μM forskolin, 5 µM VX-770, 20 µM ASP-11
T3 construct: expressed in transfected cells; host or cells: Fischer rat thyroid (FRT) cells; gift from Drs; Andras Rab and Jeong Hong (Emory University)
T3 sequence (P13569 whole entry V520F): as the sequence (P13569 whole entry M1101K) above, with V520F, K1101M counted along it
Description: as §1, §2, §3

I1234del-CFTR = target: T4, I1234del-CFTR (Homo sapiens, UniProt P13569, DEL1234-1239); test: Short-circuit current in FRT cells expressing I1234del-CFTR; format: cell-based; conditions: I1234del-CFTR FRT cells; 20 µM forskolin, 5 µM VX-770, 20 µM ASP-11; range stated jointly for I1234del- and Q1313X-CFTR
T4 construct: introduced into full-length CFTR cDNA in the vector pcDNA3.1/Zeo (+); expressed in transfected cells
T4 sequence (P13569 with tags, fused parts or gaps DEL1234-1239): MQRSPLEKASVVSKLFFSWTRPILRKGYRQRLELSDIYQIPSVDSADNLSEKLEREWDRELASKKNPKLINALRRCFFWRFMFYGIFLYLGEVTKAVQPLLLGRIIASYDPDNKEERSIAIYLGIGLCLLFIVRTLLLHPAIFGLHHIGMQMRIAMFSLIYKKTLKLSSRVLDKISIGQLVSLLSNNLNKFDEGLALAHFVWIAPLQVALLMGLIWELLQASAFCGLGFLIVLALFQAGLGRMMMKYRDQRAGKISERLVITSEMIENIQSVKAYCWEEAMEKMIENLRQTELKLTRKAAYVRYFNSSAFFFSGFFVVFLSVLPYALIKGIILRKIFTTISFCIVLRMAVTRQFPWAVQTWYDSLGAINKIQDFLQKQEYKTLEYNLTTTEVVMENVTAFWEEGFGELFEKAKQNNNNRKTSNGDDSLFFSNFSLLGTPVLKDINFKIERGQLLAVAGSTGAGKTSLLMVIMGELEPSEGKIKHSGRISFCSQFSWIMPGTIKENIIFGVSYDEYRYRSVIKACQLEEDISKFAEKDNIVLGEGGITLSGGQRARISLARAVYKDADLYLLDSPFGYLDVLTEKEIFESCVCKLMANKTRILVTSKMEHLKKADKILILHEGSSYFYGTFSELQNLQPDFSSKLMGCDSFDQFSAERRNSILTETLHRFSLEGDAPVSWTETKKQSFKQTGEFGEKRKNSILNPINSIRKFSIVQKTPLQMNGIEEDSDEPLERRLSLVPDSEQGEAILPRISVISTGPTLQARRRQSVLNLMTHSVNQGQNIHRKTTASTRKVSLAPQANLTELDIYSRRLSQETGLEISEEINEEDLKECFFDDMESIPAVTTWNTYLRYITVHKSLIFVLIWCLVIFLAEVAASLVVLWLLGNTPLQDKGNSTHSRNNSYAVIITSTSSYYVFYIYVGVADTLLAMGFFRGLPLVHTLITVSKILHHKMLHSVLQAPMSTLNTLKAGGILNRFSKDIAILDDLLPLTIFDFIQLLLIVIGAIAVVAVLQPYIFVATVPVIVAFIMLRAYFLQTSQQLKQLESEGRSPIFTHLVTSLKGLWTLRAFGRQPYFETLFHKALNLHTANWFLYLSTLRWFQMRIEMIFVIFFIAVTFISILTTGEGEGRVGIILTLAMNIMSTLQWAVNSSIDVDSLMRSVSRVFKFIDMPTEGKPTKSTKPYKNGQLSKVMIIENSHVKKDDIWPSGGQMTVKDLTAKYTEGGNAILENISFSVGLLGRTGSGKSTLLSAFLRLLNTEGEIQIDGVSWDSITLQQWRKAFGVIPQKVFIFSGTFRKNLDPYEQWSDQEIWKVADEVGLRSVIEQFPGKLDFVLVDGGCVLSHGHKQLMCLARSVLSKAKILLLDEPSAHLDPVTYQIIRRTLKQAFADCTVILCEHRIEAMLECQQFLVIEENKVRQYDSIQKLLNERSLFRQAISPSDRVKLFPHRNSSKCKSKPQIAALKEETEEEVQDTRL
Description: Figure 1 Co-potentiator ASP-11 activity in minimal function CFTR mutants in transfected FRT cells. (A) Structure of ASP-11. (B) Location of minimal function CFTR mutants studied herein. (C) Representative short-circuit current data in FRT cells expressing I1234del-CFTR, Q1313X-CFTR and S492F-CFTR in response to 20 µM forskolin (fsk), 5 µM VX-770, 20 µM ASP-11 and 10 μM CFTRinh-172. As indicated, cells were treated with 3 µM VX-809 for 18–24 h prior to measurements. (n = 3) (D). Representative short-circuit current data in FRT cells expressing predicted W1282X-CFTR read-through products W1282L-CFTR, W1282R-CFTR and W1282C-CFTR (without and with VX-809 pretreatment) (n = 3). MSD, membrane spanning domain; NBD, nucleotide binding domain; R, regulatory domain.
as §1
Short-circuit current was measured on cells cultured on Snapwell clear permeable supports (Corning) as described[10],[11]. […]

N1303K-CFTR [2] = target: T1, N1303K-CFTR; design: method as in PMID 27895116, PMID 29903467; conditions: transfected FRT cells expressing N1303K-CFTR; cited from earlier work
L1077P-CFTR = target: T5, L1077P-CFTR (Homo sapiens, UniProt P13569, L1077P); test: Short-circuit current in FRT cells expressing L1077P-CFTR; format: cell-based; conditions: 20 μM forskolin, 5 µM VX-770, 20 µM ASP-11
T5 construct: expressed in transfected cells; host or cells: Fischer rat thyroid (FRT) cells; gift from Drs; Andras Rab and Jeong Hong (Emory University)
T5 sequence (P13569 whole entry L1077P): as the sequence (P13569 whole entry M1101K) above, with L1077P, K1101M counted along it
Description: as §1, §2, §3

W1282X-CFTR [3] = target: T6, W1282X-CFTR (Homo sapiens, UniProt P13569); design: method as in PMID 27895116, PMID 29903467; conditions: transfected FRT cells expressing CFTR1281 (truncation product of W1282X-CFTR); cited from earlier work
T6 construct: expressed in transfected cells
T6 sequence (P13569 1-1281 limits assumed): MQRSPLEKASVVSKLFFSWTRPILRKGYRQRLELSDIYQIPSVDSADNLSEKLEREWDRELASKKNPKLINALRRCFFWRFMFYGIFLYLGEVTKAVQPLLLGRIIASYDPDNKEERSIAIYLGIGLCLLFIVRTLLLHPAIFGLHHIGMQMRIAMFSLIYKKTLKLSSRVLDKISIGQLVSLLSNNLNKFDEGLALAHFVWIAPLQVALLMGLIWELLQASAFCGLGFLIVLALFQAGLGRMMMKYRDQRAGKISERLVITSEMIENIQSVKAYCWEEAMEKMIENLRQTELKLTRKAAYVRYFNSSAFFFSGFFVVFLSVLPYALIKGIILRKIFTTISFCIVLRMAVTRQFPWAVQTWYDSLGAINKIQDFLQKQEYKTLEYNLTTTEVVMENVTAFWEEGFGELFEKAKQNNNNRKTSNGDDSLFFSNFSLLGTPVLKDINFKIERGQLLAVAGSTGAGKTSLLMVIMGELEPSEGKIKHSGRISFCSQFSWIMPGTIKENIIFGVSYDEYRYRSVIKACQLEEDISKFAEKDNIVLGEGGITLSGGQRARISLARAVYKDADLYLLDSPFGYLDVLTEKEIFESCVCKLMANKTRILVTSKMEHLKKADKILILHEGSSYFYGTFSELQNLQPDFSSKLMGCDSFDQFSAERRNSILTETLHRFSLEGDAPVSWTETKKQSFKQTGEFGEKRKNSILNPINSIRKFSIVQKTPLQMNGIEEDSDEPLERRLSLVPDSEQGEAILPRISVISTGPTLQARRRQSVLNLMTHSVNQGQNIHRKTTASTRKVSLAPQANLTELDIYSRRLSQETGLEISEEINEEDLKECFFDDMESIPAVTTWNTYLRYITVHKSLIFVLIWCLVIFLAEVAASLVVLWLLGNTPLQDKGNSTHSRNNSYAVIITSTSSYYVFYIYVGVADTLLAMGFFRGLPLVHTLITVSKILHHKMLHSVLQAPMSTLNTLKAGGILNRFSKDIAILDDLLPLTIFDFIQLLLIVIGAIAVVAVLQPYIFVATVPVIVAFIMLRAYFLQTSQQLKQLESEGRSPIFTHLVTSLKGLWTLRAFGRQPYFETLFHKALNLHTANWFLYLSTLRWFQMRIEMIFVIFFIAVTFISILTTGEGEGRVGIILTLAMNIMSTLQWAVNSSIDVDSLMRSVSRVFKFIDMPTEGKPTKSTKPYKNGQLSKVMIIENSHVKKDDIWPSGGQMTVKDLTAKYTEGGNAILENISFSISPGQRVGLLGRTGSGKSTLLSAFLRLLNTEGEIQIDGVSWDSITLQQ

W1282X-CFTR [4] = target: T6, W1282X-CFTR; test: Structure-activity testing of analogs in FRT cells expressing W1282X-CFTR; format: cell-based
Description: To establish structure-activity relationships, 240 commercially available piperidinepyridoindole analogs and 160 pyrazoloquinoline analogs were tested in FRT cells expressing W1282X-CFTR. In general, the methoxy substituent on the 4-position (R^3) on the pyridoindole ring increased potency (compare A01 vs A534). N-methylation on the pyridoindole ring abolished activity (compare A534 vs A600). For substituent R^1 on the piperidine ring, substituted benzyl gave greatest activity (A061 and A662). Other R^1 substituents, including sulfonamide (A145), alkyl (A764) and carbocyclic (A714), reduced activity. Changing the benzylic carbon from methylene (CH2) to ketone (C=O) abolished activity (A815, A350 and A956).
For R^3, pyridine (D003), benzyl (D035) and substituted methyl-pyrazole (D086) abolished activity. […] The D123 pyrazoloquinoline with R^3 substituted with thiophene-quinoline heterocycle gave the best potency.

T1 sequence (P13569 whole entry N1303K): as the sequence (P13569 whole entry M1101K) above, with K1101M, N1303K counted along it

SMILES: CC(C)(C)c1cc(C(C)(C)C)c(NC(=O)c2c[nH]c3ccccc3c2=O)cc1O [VX-770, ivacaftor]
response of N1303K-CFTR to modulator (N1303K-CFTR [1]): not responsive

ASP-11 effect on short-circuit current (M1101K-CFTR): absence of ASP-11 effect
ASP-11 effect on short-circuit current (V520F-CFTR): absence of ASP-11 effect
fold increase in chloride current with ASP-11 plus VX-770 compared to VX-770 alone (I1234del-CFTR): 3–9 fold
ASP-11 effect on short-circuit current (L1077P-CFTR): absence of ASP-11 effect
SMILES: CCCCn1cc(S(=O)(=O)Nc2ccc(CC)cc2)c2cccnc21 [ASP-11]
activation of G551D-CFTR (G551D-CFTR): activates G551D-CFTR
increase in chloride current over that produced by a high concentration of VX-770 (N1303K-CFTR [2]): ~ 8 fold
increase in chloride current over that produced by a high concentration of VX-770 (W1282X-CFTR [3]): ~ 8 fold

SMILES: COc1ccc2[nH]c3c(c2c1)CCNC31CCN(Cc2ccc(F)cc2F)CC1 [Compound A061]
Relative Vmax (%) (W1282X-CFTR [4]; Table 1, 100% Vmax corresponds to 20 μM ASP-11): 100%
EC50 (W1282X-CFTR [4]; Table 1, piperidine-pyridoindole analogs): 2000 nM
